PubChem BioAssay AID1794828

Molecular target: Solute carrier family 2, facilitated glucose transporter member 4 (Homo sapiens) (UniProt P14672)
Assay: GLUT4 glucose uptake inhibitors and substrates, dose response, cell-based, flow cytometry, glucose FRET sensor, HEK293 JumpIN TRex, wild type (AID 1794828)
Conditions: HEK293 JumpIN SLC2A4-OE

Chain of Solute carrier family 2, facilitated glucose transporter member 4 (Homo sapiens) (P14672 whole entry, looked up): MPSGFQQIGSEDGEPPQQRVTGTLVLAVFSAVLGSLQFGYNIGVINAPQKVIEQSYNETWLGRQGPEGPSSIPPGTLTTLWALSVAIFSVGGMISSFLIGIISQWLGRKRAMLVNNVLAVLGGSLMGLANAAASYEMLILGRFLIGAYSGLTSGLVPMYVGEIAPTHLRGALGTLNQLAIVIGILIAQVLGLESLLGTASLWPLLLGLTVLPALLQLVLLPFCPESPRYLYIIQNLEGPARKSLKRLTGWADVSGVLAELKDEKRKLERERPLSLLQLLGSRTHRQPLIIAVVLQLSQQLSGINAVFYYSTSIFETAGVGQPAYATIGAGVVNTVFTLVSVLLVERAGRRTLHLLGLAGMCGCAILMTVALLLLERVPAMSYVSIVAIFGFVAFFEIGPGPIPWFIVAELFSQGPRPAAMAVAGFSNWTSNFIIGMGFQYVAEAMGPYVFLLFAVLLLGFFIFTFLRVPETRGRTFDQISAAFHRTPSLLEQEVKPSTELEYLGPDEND

SMILES | IC50 [µM] | EC50 (substrate uptake, increase) [µM]
Cc1c(NC(=O)c2cc(C(N)=O)nc3cc(F)ccc23)c(C(F)(F)F)nn1Cc1ccc(C#N)cc1 | 5.5 | –
O=C(Oc1cccc(F)c1OC(=O)c1cccc(O)c1)c1cccc(O)c1 | 2.5 | –
OC[C@H]1OC(O)[C@H](O)[C@@H](O)[C@@H]1O (stereo partly drawn) | – | 860
